One test has as its system 32135 mRNA. The conditions noted are these: niacin models. An excerpt: (§1) This example describes the TaqMan™ procedure. The Taqman™ procedure is a quantitative, reverse transcription PCR-based approach for detecting mRNA. The RT-PCR reaction exploits the 5′ nuclease activity of AmpliTaq Gold™ DNA Polymerase to cleave a TaqMan™ probe during PCR. Briefly, cDNA was generated from the samples of interest, e.g., heart, kidney, liver, skeletal muscle, and various vessels, and used as the starting material for PCR amplification. In addition to the 5′ and 3′ gene-specific primers, a gene-specific oligonucleotide probe (complementary to the region being amplified) was included in the reaction (i.e., the Taqman™ probe). […]
(§2) During the PCR reaction, cleavage of the probe separates the reporter dye and the quencher dye, resulting in increased fluorescence of the reporter. Accumulation of PCR products is detected directly by monitoring the increase in fluorescence of the reporter dye. When the probe is intact, the proximity of the reporter dye to the quencher dye results in suppression of the reporter fluorescence. […]

For another test, the system named is 17799 mRNA. The conditions noted are these: niacin marmoset models.
From the text: as §1, §2

In test [1] the test system is 29002 mRNA. As to the kind of experiment: TaqMan analysis of 29002 mRNA in stimulated endothelial cells. The test is classed as cell-based. The method, then: (§3) This example describes the TaqMan™ procedure. […] The TaqMan™ probe includes the oligonucleotide with a fluorescent reporter dye covalently linked to the 5′ end of the probe (such as FAM (6-carboxyfluorescein), TET (6-carboxy-4,7,2′,7′-tetrachlorofluorescein), JOE (6-carboxy-4,5-dichloro-2,7-dimethoxyfluorescein), or VIC) and a quencher dye (TAMRA (6-carboxy-N,N,N′,N′-tetramethylrhodamine) at the 3′ end of the probe.
(§4) RNA was prepared using the trizol method and treated with DNase to remove contaminating genomic DNA. cDNA was synthesized using standard techniques.

For a further test, the system named is 6169 mRNA. As to the kind of experiment: TaqMan analysis of 6169 mRNA in an African Green Monkey model of atherosclerosis. Format: in vivo. The method, then: as §3, §4
In general terms: Quantitative PCR measures a nucleic acid by following its amplification.

Another test deals with 21833 mRNA. As to the kind of experiment: TaqMan analysis of 21833 in cultured human monocytes and macrophages. The test is classed as cell-based. As to conditions: after stimulation. As for the experimental part:
as §3, §4

Test [2] relates to 29002 mRNA. As to the kind of experiment: TaqMan analysis of 29002 mRNA in stimulated macrophages. Format: cell-based. As for the experimental part:
as §3, §4

In the case of `O=C(O)c1cccnc1` [niacin], in the test with 32135 mRNA, the “32135 mRNA expression” value was “repressed”. Also, the “17799 mRNA expression” value with 17799 mRNA is given as “repressed”.
With `CC[C@H](C)C(=O)O[C@H]1CCC=C2C=C[C@H](C)[C@H](CC[C@@H]3C[C@@H](O)CC(=O)O3)[C@H]21` [mevastatin, reference compound], in the test on 29002 mRNA [1], the “29002 mRNA expression” value is listed as “down-regulated”.
Turning to n-3 polyunsaturated fatty acid, the “6169 mRNA expression” value with 6169 mRNA is on record as “repressed”.

B1: interferon gamma: interferon gamma used to stimulate monocytes and macrophages (protein, UniProt P01579 24-161, looked up)
Interferon gamma: QDPYVKEAENLKKYFNAGHSDVADNGTLFLGILKNWKEESDRKIMQSQIVSFYFKLFKNFKDDQSIQKSVETIKEDMNVKFFNSNKKKRDDFEKLTNYSVTDLNVQRKAIHELIQVMAELSPAAKTGKRKRSQMLFRG
For B1, the 21833 expression entry in the test on 21833 mRNA was “upregulated”.

B2: CD40 ligand: CD40 ligand used to stimulate macrophages (protein, UniProt P29965 113-261, looked up)
CD40 ligand, soluble form: MQKGDQNPQIAAHVISEASSKTTSVLQWAEKGYYTMSNNLVTLENGKQLTVKRQGLYYIYAQVTFCSNREASSQAPFIASLCLKSPGRFERILLRAANTHSSAKPCGQQSIHLGGVFELQPGASVFVNVTDPSQVSHGTGFTSFGLLKL
Take B2: in the test on 21833 mRNA, the 21833 expression result is “upregulated”. Also, the “29002 mRNA expression” value in the test on 29002 mRNA [2] is given as “upregulated”.

For the origin of these results see patent US20030215840A1, “Methods and compositions for treating cardiovascular disease using 1682, 6169, 6193, 7771, 14395, 29002, 33216, 43726, 69292, 26156, 32427, 2402, 7747, 1720, 9151, 60491, 1371, 7077, 33207, 1419, 18036, 16105, 38650, 14245, 58848, 1870, 25856, 32394, 3484, 345, 9252, 9135, 10532, 18610, 8165, 2448, …” (Millennium Pharmaceuticals, Inc., priority 2002, published 2003).
